According to ChEMBL document CHEMBL3044779, “The action of herbicides on fatty acid biosynthesis and elongation in barley and cucumber” (Pest Manag Sci, 2010):
Calls of active or inactive are those of the source. The rule behind the calls is not given here.

Legend:
[1] = system: Cucumis sativus; assay: Inhibition of fatty acid synthesis in Cucumis sativus (cucumber) using [14C]malonate assessed as [14C]-labeled 16C fatty acid level at 100 uM after 3 hr by liquid scintillation counting (reference value: 8.5 +/- 1.4%); format: functional; design: scale not given: the % may be the effect or the level left
[2] = system: Cucumis sativus; assay: Inhibition of fatty acid synthesis in Cucumis sativus (cucumber) using [14C]acetate assessed as [14C]-labeled 20C fatty acid level at 100 uM after 3 hr by liquid scintillation counting (reference value: 9 +/- 0.9%); format: functional; design: scale not given: the % may be the effect or the level left
[3] = system: Hordeum vulgare; assay: Inhibition of fatty acid synthesis in Hordeum vulgare (barley) using [14C]acetate assessed as [14C]-labeled 16C fatty acid level at 100 uM after 3 hr by liquid scintillation counting (reference value: 29.2 +/- 2.1%); format: functional; design: scale not given: the % may be the effect or the level left
[4] = system: Cucumis sativus; assay: Inhibition of fatty acid synthesis in Cucumis sativus (cucumber) using [14C]acetate assessed as [14C]-labeled 18C fatty acid level at 100 uM after 3 hr by liquid scintillation counting (reference value: 26.6 +/- 1.6%); format: functional; design: scale not given: the % may be the effect or the level left
[5] = system: Hordeum vulgare; assay: Inhibition of fatty acid synthesis in Hordeum vulgare (barley) using [14C]malonate assessed as [14C]-labeled 16C fatty acid level at 100 uM after 3 hr by liquid scintillation counting (reference value: 3.1 +/- 0.6%); format: functional; design: scale not given: the % may be the effect or the level left
[6] = system: Cucumis sativus; assay: Inhibition of fatty acid synthesis in Cucumis sativus (cucumber) using [14C]acetate assessed as [14C]-labeled 22C fatty acid level at 100 uM after 3 hr by liquid scintillation counting (reference value: 25.5 +/- 2%); format: functional; design: scale not given: the % may be the effect or the level left
[7] = system: Cucumis sativus; assay: Inhibition of fatty acid synthesis in Cucumis sativus (cucumber) using [14C]acetate assessed as [14C]-labeled 16C fatty acid level at 100 uM after 3 hr by liquid scintillation counting (reference value: 31.9 +/- 5%); format: functional; design: scale not given: the % may be the effect or the level left
[8] = system: Hordeum vulgare; assay: Inhibition of fatty acid synthesis in Hordeum vulgare (barley) using [14C]acetate assessed as [14C]-labeled 18C fatty acid level at 100 uM after 3 hr by liquid scintillation counting (reference value: 53.7 +/- 0.7%); format: functional; design: scale not given: the % may be the effect or the level left
[9] = system: Cucumis sativus; assay: Inhibition of fatty acid synthesis in Cucumis sativus (cucumber) using [14C]malonate assessed as [14C]-labeled 20C fatty acid level at 100 uM after 3 hr by liquid scintillation counting (reference value: 11.5 +/- 3%); format: functional; design: scale not given: the % may be the effect or the level left
[10] = system: Hordeum vulgare; assay: Inhibition of fatty acid synthesis in Hordeum vulgare (barley) using [14C]malonate assessed as [14C]-labeled 22C fatty acid level at 100 uM after 3 hr by liquid scintillation counting (reference value: 31.3 +/- 1.6%); format: functional; design: scale not given: the % may be the effect or the level left
[11] = system: Hordeum vulgare; assay: Inhibition of fatty acid synthesis in Hordeum vulgare (barley) using [14C]acetate assessed as [14C]-labeled 20C fatty acid level at 100 uM after 3 hr by liquid scintillation counting (reference value: 3.8 +/- 0.6%); format: functional; design: scale not given: the % may be the effect or the level left
[12] = system: Cucumis sativus; assay: Inhibition of fatty acid synthesis in Cucumis sativus (cucumber) assessed as inhibition of [14C]malonate incoporation in total fatty acids at 100 uM measured as total disintegration per g of fresh weight after 3 hr by liquid scintillation counting (reference value: 7.6 +/- 1.6%); format: functional
[13] = system: Cucumis sativus; assay: Inhibition of fatty acid synthesis in Cucumis sativus (cucumber) assessed as inhibition of [14C]acetate incoporation in total fatty acids at 100 uM measured as total disintegration per g of fresh weight after 3 hr by liquid scintillation counting (reference value: 12.1 +/- 1.4%); format: functional
[14] = system: Cucumis sativus; assay: Inhibition of fatty acid synthesis in Cucumis sativus (cucumber) using [14C]acetate assessed as reduction in [14C]-labeled 24C fatty acid level at 100 uM after 3 hr by liquid scintillation counting relative to control; format: functional, organism-based
[15] = target: T1, Acetyl-CoA carboxylase (Zea mays, UniProt Q3V4E6); assay: Inhibition of Zea mays (maize) chloroplastic ACCase using acetyl-coA as substrate assessed as inhibition of [14C]NaHCO3 incorporation into malonyl-coA incubated for 10 min prior to substrate addition measured for 20 min by liquid scintillation counting
[16] = system: Hordeum vulgare; assay: Inhibition of fatty acid synthesis in Hordeum vulgare (barley) using [14C]acetate assessed as [14C]-labeled 24C fatty acid level at 100 uM after 3 hr by liquid scintillation counting (reference value: 5 +/- 0.8%); format: functional; design: scale not given: the % may be the effect or the level left
[17] = system: Hordeum vulgare; assay: Inhibition of fatty acid synthesis in Hordeum vulgare (barley) using [14C]acetate assessed as [14C]-labeled 22C fatty acid level at 100 uM after 3 hr by liquid scintillation counting (reference value: 8.3 +/- 0.9%); format: functional; design: scale not given: the % may be the effect or the level left
[18] = system: Hordeum vulgare; assay: Inhibition of fatty acid synthesis in Hordeum vulgare (barley) assessed as inhibition of [14C]malonate incoporation in total fatty acids at 100 uM measured as total disintegration per g of fresh weight after 3 hr by liquid scintillation counting (reference value: 8.8 +/- 2.4%); format: functional
[19] = system: Cucumis sativus; assay: Inhibition of fatty acid synthesis in Cucumis sativus (cucumber) using [14C]malonate assessed as [14C]-labeled 22C fatty acid level at 100 uM after 3 hr by liquid scintillation counting (reference value: 48.5 +/- 6.4%); format: functional; design: scale not given: the % may be the effect or the level left
[20] = system: Cucumis sativus; assay: Inhibition of fatty acid synthesis in Cucumis sativus (cucumber) using [14C]malonate assessed as [14C]-labeled 18C fatty acid level at 100 uM after 3 hr by liquid scintillation counting (reference value: 22.5 +/- 2.2%); format: functional; design: scale not given: the % may be the effect or the level left
[21] = system: Hordeum vulgare; assay: Inhibition of fatty acid synthesis in Hordeum vulgare (barley) using [14C]malonate assessed as [14C]-labeled 24C fatty acid level at 100 uM after 3 hr by liquid scintillation counting (reference value: 20 +/- 1.2%); format: functional; design: scale not given: the % may be the effect or the level left
[22] = system: Cucumis sativus; assay: Inhibition of fatty acid synthesis in Cucumis sativus (cucumber) using [14C]malonate assessed as [14C]-labeled 24C fatty acid level at 100 uM after 3 hr by liquid scintillation counting (reference value: 9 +/- 2.5%); format: functional; design: scale not given: the % may be the effect or the level left
[23] = system: Hordeum vulgare; assay: Inhibition of fatty acid synthesis in Hordeum vulgare (barley) using [14C]malonate assessed as [14C]-labeled 26C fatty acid level at 100 uM after 3 hr by liquid scintillation counting (reference value: 8.3 +/- 0.4%); format: functional; design: scale not given: the % may be the effect or the level left
[24] = target: T1, Acetyl-CoA carboxylase; assay: Inhibition of Zea mays (maize) cytosolic ACCase using acetyl-coA as substrate assessed as inhibition of [14C]NaHCO3 incorporation into malonyl-coA incubated for 10 min prior to substrate addition measured for 20 min by liquid scintillation counting
[25] = system: Hordeum vulgare; assay: Inhibition of fatty acid synthesis in Hordeum vulgare (barley) using [14C]malonate assessed as [14C]-labeled 18C fatty acid level at 100 uM after 3 hr by liquid scintillation counting (reference value: 22.8 +/- 2.7%); format: functional; design: scale not given: the % may be the effect or the level left
[26] = system: Hordeum vulgare; assay: Inhibition of fatty acid synthesis in Hordeum vulgare (barley) using [14C]malonate assessed as [14C]-labeled 20C fatty acid level at 100 uM after 3 hr by liquid scintillation counting (reference value: 14.5 +/- 1.7%); format: functional; design: scale not given: the % may be the effect or the level left
[27] = system: Hordeum vulgare; assay: Inhibition of fatty acid synthesis in Hordeum vulgare (barley) assessed as inhibition of [14C]acetate incoporation in total fatty acids at 100 uM measured as total disintegration per g of fresh weight after 3 hr by liquid scintillation counting (reference value: 9.2 +/- 2.4%); format: functional

T1 sequence (Q3V4E6 whole entry): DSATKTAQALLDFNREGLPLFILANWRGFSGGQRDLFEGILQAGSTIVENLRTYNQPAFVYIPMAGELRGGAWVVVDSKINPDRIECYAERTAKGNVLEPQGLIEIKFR

## Cc1sc(-c2ccc(Cl)cc2)nc1C1C(=O)CC2(CCCCC2)C1=O (configuration not stated) [Spiro-decanedione A]
[1]
  Activity: 8.9%
[2]
  Activity: 3.4%
[3]
  Activity: 4.6%
[4]
  Activity: 43.8%
[5]
  Activity: 0.9%
[6]
  Activity: 2.3%
[7]
  Activity: 50.5%
[8]
  Activity: 20.5%
[9]
  Activity: 18.1%
[10]
  Activity: 31.2%
[11]
  Activity: 24.4%
[12]
  Activity: 12.7 ×10⁶ dpm
[13]
  Activity: 14.3 ×10⁶ dpm
[14]
  inhibition: Active
[15]
  IC50: 0.008 µM
[16]
  Activity: 16.8%
[17]
  Activity: 33.7%
[18]
  Activity: 9.9 ×10⁶ dpm
[19]
  Activity: 43%
[20]
  Activity: 20%
[21]
  Activity: 25.3%
[22]
  Activity: 10%
[23]
  Activity: 8.2%
[24]
  IC50: 0.02 µM
[25]
  Activity: 18.6%
[26]
  Activity: 15.8%
[27]
  Activity: 3.6 ×10⁶ dpm
